According to PubChem BioAssay AID1963444 (Molecular Pharmacology Branch, DTP, NCI, 2024):
Values belong to the molecule of their own block, whether it stands above or below them.

System: HSSY-II complex spheroid growth, percent test/control
Test: Anticancer human tumor HSSY-II cell line growth inhibition [Asc];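 note: spheroids exposed to drug for 7 days before reading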
Conditions: for IC50: curve of first compound; for viability, T/C: stronger effect = lower value
Method in brief: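 Complex solid-tumor spheroids incorporating human endothelial and mesenchymal stem cells received single agents or combinations over half-log dilution ranges anchored to clinical Cmax.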

[1] = second compound 0.1 µM, first compound 0.00316 µM
[2] = second compound 0.1 µM, first compound 0.01 µM
[3] = second compound 0.1 µM, first compound 0.0316 µM
[4] = second compound 0.1 µM, first compound 0.1 µM
[5] = second compound 0.1 µM, first compound 0.316 µM
[6] = second compound 0.1 µM, first compound 1 µM
[7] = second compound 0.316 µM, first compound 0.00316 µM
[8] = second compound 0.316 µM, first compound 0.01 µM
[9] = second compound 0.316 µM, first compound 0.0316 µM
[10] = second compound 0.316 µM, first compound 0.1 µM
[11] = second compound 0.316 µM, first compound 0.316 µM
[12] = second compound 0.316 µM, first compound 1 µM
[13] = second compound 1 µM, first compound 0.00316 µM
[14] = second compound 1 µM, first compound 0.01 µM
[15] = second compound 1 µM, first compound 0.0316 µM
[16] = second compound 1 µM, first compound 0.1 µM
[17] = second compound 1 µM, first compound 0.316 µM
[18] = second compound 1 µM, first compound 1 µM
[19] = second compound 3.16 µM, first compound 0.00316 µM
[20] = second compound 3.16 µM, first compound 0.01 µM
[21] = second compound 3.16 µM, first compound 0.0316 µM
[22] = second compound 3.16 µM, first compound 0.1 µM
[23] = second compound 3.16 µM, first compound 0.316 µM
[24] = second compound 3.16 µM, first compound 1 µM
[25] = second compound 10 µM, first compound 0.00316 µM
[26] = second compound 10 µM, first compound 0.01 µM
[27] = second compound 10 µM, first compound 0.0316 µM
[28] = second compound 10 µM, first compound 0.1 µM
[29] = second compound 10 µM, first compound 0.316 µM
[30] = second compound 10 µM, first compound 1 µM

IC50 (second compound 0.1 µM): 259 nM
IC50 (second compound 0.316 µM): 146 nM
IC50 (second compound 1 µM): 135 nM
IC50 (second compound 3.16 µM): 112 nM
IC50 (second compound 10 µM): 69.9 nM
Compound: CCN1CCN(Cc2ccc(Nc3ncc(F)c(-c4cc(F)c5nc(C)n(C(C)C)c5c4)n3)nc2)CC1 + Cc1c(S(C)(=O)=O)c(-c2cc(F)cc(N3CCN(c4ccc(NS(=O)(=O)c5ccc(NC(CCN6CCC(C(=O)OCCCP(=O)(O)O)CC6)CSc6ccccc6)c(S(=O)(=O)C(F)(F)F)c5)cc4)CC3)c2)c(-c2ccc(Cl)cc2)n1C(C)C
viability, T/C [1]: 90.8%
viability, T/C [2]: 105%
viability, T/C [3]: 71.5%
viability, T/C [4]: 68.5%
viability, T/C [5]: 47.5%
viability, T/C [6]: 26.7%
viability, T/C [7]: 92.4%
viability, T/C [8]: 88.2%
viability, T/C [9]: 75.6%
viability, T/C [10]: 52.8%
viability, T/C [11]: 40%
viability, T/C [12]: 20.7%
viability, T/C [13]: 94.7%
viability, T/C [14]: 83.1%
viability, T/C [15]: 70%
viability, T/C [16]: 57.6%
viability, T/C [17]: 34.8%
viability, T/C [18]: 24.9%
viability, T/C [19]: 80.9%
viability, T/C [20]: 91.8%
viability, T/C [21]: 74.2%
viability, T/C [22]: 49%
viability, T/C [23]: 38.2%
viability, T/C [24]: 23.1%
viability, T/C [25]: 83.9%
viability, T/C [26]: 81.3%
viability, T/C [27]: 60.7%
viability, T/C [28]: 41.6%
viability, T/C [29]: 40.3%
viability, T/C [30]: 24.9%

IC50 (second compound 0.1 µM): 37.6 nM
IC50 (second compound 0.316 µM): 31.7 nM
IC50 (second compound 1 µM): 25.4 nM
IC50 (second compound 3.16 µM): 26.3 nM
IC50 (second compound 10 µM): 26.4 nM
Compound: COc1c(OCCCN2CCOCC2)ccc2c3n(c(=NC(=O)c4cnc(N)nc4)nc12)CCN3 + Cc1c(S(C)(=O)=O)c(-c2cc(F)cc(N3CCN(c4ccc(NS(=O)(=O)c5ccc(NC(CCN6CCC(C(=O)OCCCP(=O)(O)O)CC6)CSc6ccccc6)c(S(=O)(=O)C(F)(F)F)c5)cc4)CC3)c2)c(-c2ccc(Cl)cc2)n1C(C)C
viability, T/C [1]: 86.7%
viability, T/C [2]: 72.9%
viability, T/C [3]: 50.5%
viability, T/C [4]: 35.9%
viability, T/C [5]: 20.9%
viability, T/C [6]: 10.2%
viability, T/C [7]: 86.4%
viability, T/C [8]: 74.1%
viability, T/C [9]: 48.5%
viability, T/C [10]: 28.6%
viability, T/C [11]: 19.6%
viability, T/C [12]: 8.57%
viability, T/C [13]: 90.1%
viability, T/C [14]: 67%
viability, T/C [15]: 45%
viability, T/C [16]: 30.4%
viability, T/C [17]: 17.7%
viability, T/C [18]: 7.86%
viability, T/C [19]: 82.1%
viability, T/C [20]: 67.9%
viability, T/C [21]: 42.4%
viability, T/C [22]: 34.5%
viability, T/C [23]: 16.2%
viability, T/C [24]: 6.36%
viability, T/C [25]: 77.6%
viability, T/C [26]: 68.9%
viability, T/C [27]: 42.9%
viability, T/C [28]: 30.7%
viability, T/C [29]: 16.4%
viability, T/C [30]: 3.47%
